Laboratory results taken from patent publication US20190038784A1, “TAU PET IMAGING LIGANDS” (Janssen Pharmaceutica NV, priority 2016, published 2019).

Assays:
[1] = system: extracted human tau (aggregated tau, PHF); experiment: Competitive radioligand binding assay with [3H]-T808 on aggregated tau preps from human AD brain; conditions: Aβ Ki versus Tau Ki
Experimental: (§1) Enriched aggregated tau fractions were prepared according to a slightly modified version of the protocol described by Greenberg and Davies (Greenberg S G, Davies P. A preparation of Alzheimer paired helical filaments that display distinct tau proteins by polyacrylamide gel electrophoresis. Proc. Natl. Acad. Sci. 1990; 87: 5827-5831) using human AD brain tissue (occipital cortex with high tau fibril load). Briefly, frozen human AD brain samples (˜10 g) were homogenized with 10 vol of cold homogenization buffer (10 mM Tris, 800 mM NaCl, 1 mM EGTA, 10% sucrose, pH 7.4 containing PhosSTOP phosphatase and cOmplete EDTA-free protease inhibitor (Roche, Vilvoorde, Belgium)) on ice. After centrifugation at 27 000×g for 20 min at 4° C. the supernatant was recovered and 1% (w/v) N-lauroylsarcosine and 1% (v/v) 2-mercaptoethanol were added. The N-lauroylsarcosine/2-mercaptoethanol supernatant was incubated for 2 h at 37° C. while shaking on an orbital shaker. Subsequently, ultracentrifugation at 108 000×g for 1.5 h at room temperature enriched aggregated tau in the pellet. Supematant was removed and the pellet was carefully rinsed twice with a small amount of TBS (50 mM Tris, 150 mM NaCl, pH 7.4). Finally, the aggregated tau pellet was recovered in TBS and resuspended to ensure sample homogeneity. Small aliquots were stored at −80° C.
(§2) The competitive radioligand binding assays measure the binding of a radiolabeled reference ligand in the presence of a dose response concentration range of test compounds.
(§3) Briefly, aggregated tau preps were diluted to 100 μg protein/ml in PBS buffer with 5% ethanol. In a 96-well format, ^3H-T808 (specific activity; 32.97 Ci/mmol) was added at a final concentration of 10 nM to increasing amounts of test compound in the presence of 20 μg protein of aggregated tau prep. Nonspecific binding was defined as the number of counts remaining in the presence of 50 μM Thioflavin T (common beta sheet binder). After 2 h incubation at room temperature, the unbound ligand is removed by filtration of the binding mixtures over GF/B glass filters using a Filtermate 96 harvester instrument (Perkin Elmer, Zaventem, Belgium). The filters were washed three times with PBS buffer containing 20% ethanol. After overnight drying of the filter plate, Microscint O liquid (Perkin Elmer) was added and the amount of radiolabeled ligand bound to the fibrils is measured by liquid scintillation counting in a Topcount instrument (Packard Instrument Company, Connecticut, USA)
(§4) Values for half-maximal inhibitory concentration (IC50) were determined from displacement curves of at least two independent experiments using GraphPad Prism software (GraphPad Software, San Diego, Calif.).

[2] = molecular target: T1, extracted human tau (aggregated tau, PHF) (Homo sapiens, UniProt P10636); experiment: as above; conditions: for Ki: mean of at least two measurements with SD, calculated from IC50, KD PHF 6.275 nM, 10 nM RL; for IC50: radiolabel displacement of [3H]-T808, 10 nM, read-out: pIC50, binding to extracted human tau (converted)
T1 construct: Tau Ki; other: mean of at least two measurements with SD; other: radiolabel displacement of [3H]-T808, 10 nM
T1 sequence (P10636 623-695 limits assumed): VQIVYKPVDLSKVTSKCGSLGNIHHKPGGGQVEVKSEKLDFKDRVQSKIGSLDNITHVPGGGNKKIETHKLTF
Experimental: as §1, §2, §3, §4

[3] = molecular target: T2, extracted human amyloid-beta aggregates (Homo sapiens, UniProt P05067); experiment: Competitive radioligand binding assay with [3H]-AV-45 on amyloid plaque preps from human AD brain; conditions: for Ki: calculated from IC50, KD Aβ 7.85 nM for 3H-AV45, 10 nM RL; for binding to extracted human amyloid-beta aggregates: up to 10 μM, radiolabel displacement of [3H]-AV-45
T2 construct: from tissue; host or cells: human AD brain, occipital cortex
T2 sequence (P05067 672-713 limits assumed): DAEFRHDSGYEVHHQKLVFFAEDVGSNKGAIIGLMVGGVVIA
Experimental: Enriched aggregated β-amyloid preps were prepared from frozen human AD brain samples (10 g—occipital cortex with high amyloid plaques load) that were homogenized with 7-fold vol of cold homogenization buffer (250 mM sucrose, 20 mM Tris base, 1 mM EDTA, 1 mM EGTA and PhosSTOP phosphatase and cOmplete EDTA-free protease inhibitor) on ice. After centrifugation at 27 000×g for 20 min at 4° C. cell debris was removed. Supematant containing amyloid plaques was aliquoted and stored at −80° C.
as §2, §4
To determine compound binding to aggregated β-amyloid a similar assay was put in place but with some minor modifications. Briefly, amyloid preps were diluted to 150 μg protein/ml in 50 mM Tris with 0.1% BSA and 5% ethanol. ^3H-AV-45 (florbetapir-specific activity; 45.95 Ci/mmol) was added at a final concentration of 10 nM to increasing amounts of test compound in the presence of 30 μg protein of amyloid plaques prep. Nonspecific binding was determined in the presence of 500 μM Thioflavin T. After 150 min incubation at room temperature, the binding mixtures were filtered over GF/B glass filters. The filters were washed three times with PBS buffer containing 20% ethanol. Subsequent steps were identical to those described for the aggregated tau preps.

[4] = system: neurofibrillary tangles (NFTs) in AD brain slices; experiment: Autoradiography blocking study of [18F]Co. No. 1 on human AD brain slices; type: binding; conditions: 1 μM cold blocker, Braak stage V-VI slices
Experimental: Air-dried frozen, 20-μm-thick slices of an AD-patient (Braak stage V-VI) were incubated for 60 min with [^18F]Co. No. 1 (7.4 kBq/500 JpL per section) and subsequently washed with mixtures of phosphate buffered saline (PBS) and ethanol as described elsewhere (Xia C F, Arteaga J, Chen G, et al. [(18)F]T807, a novel tau positron emission tomography imaging agent for Alzheimer's disease. Alzheimers Dement. 2013, 1-11, doi: 10.1016/i.ialz.2012.11.008). To assess specificity of binding, slices were incubated with tracer in the presence of 1 μM of authentic T808 or […].
No. 1. After drying, slices were exposed to a phosphor storage screen (super-resolution screen, Perkin Elmer). Screens were read in a Cyclone Plus system (Perkin Elmer, Waltham, Mass., U.S.A.) and analyzed using Optiquant software. Results are expressed as digital light units per square mm (DLU/mm^2). Adjacent AD slices were immunostained with anti-tau (AT8) and anti-Aβ antibodies (AG8), to correlate with [^18F]Co. No. 1 binding. […] The binding pattern corresponds well with the Tau pathology as detected with AT8 IHC on adjacent slides (see FIG. 1). To assess the specificity of the tracer binding to neurofibrillary tangles (NFTs), blocking studies with authentic Co. No. 1 and T808 were performed. […] Blocking percentages were calculated as (DLU/mm^2 in the presence of […] blocker)/(DLU/mm^2 tracer only).

[5] = MicroPET imaging, Wistar rats; type: in vivo; conditions: baseline scan, whole brain, IV 50 MBq
Experimental: Dynamic 120 min microPET scans were performed on a Focus™ 220 microPET scanner (Concorde Microsystems, Konxville, Tenn., USA) on three female Wistar rats simultaneously, which were kept under gas anesthesia during the whole procedure (2.5% isoflurane in 02 at 1 L/min flow rate). The head of the animals was placed central, in the field of view, of the microPET scanner. Scans were acquired in list mode and acquisition data were Fourier rebinned in 24 time frames (4×15 s, 4×60 s, 5×180 s, 8×300 s, 3×600 s). Data, which were 3D maximum a posteriori (3D-MAP) reconstructed, were manually aligned with a rat brain [^18F]FDG template in Paxinos coordinates using an affine transformation, to allow predefined volumes of interest (VOIs) analysis. Time-activity curves (TACs) of the whole brain were generated using VOIs with PMOD software (v 3.2, PMOD Technologies Ltd., Zdtrich, Switzerland). Radioactivity concentration in the brain was expressed as standardized uptake value (SUV, calculated as (radioactivity in Bq in brain/mL)/(total injected dose (Bq)/body weight in g)) as a function of time after tracer injection. Scans were started immediately after IV injection of 50 MBq [^18F]Co. No. 1 or [^18F]T807 (n=3/tracer). […]

[6] = MicroPET imaging, rhesus monkey (experiment 2); type: in vivo, rhesus monkey (Macaca mulatta); conditions: baseline scan
Experimental: A dynamic 120-min μPET scan with [^18F]Co. No. 1 or [^18F]T807 was performed with a Focus 220 μPET scanner on a male rhesus monkey (6 y-old Macaca mulatta, 7.6 kg), that was sedated with ketamine (Ketalar®) and xylazine (Rompun®) via intramuscular (IM) injection. During scanning the monkey received repeatedly an additional dose of ketamine/xylazine via i.v. injection. O2 saturation in blood, breathing frequency and heartbeat frequency were monitored during the entire experiment. The head of the animal was placed central in the field of view of the μPET scanner. Scans were acquired in list mode and Fourier rebinned in 24 time frames (4×15 s, 4×60 s, 5×180 s, 8×300 s, 3×600 s). Data were reconstructed using a 3D maximum a posteriori (3D-MAP) iterative reconstruction. TACs of the whole brain were generated using VOIs with PMOD software. Radioactivity concentration in the brain is expressed as SUV as a function of time after tracer injection. Scans were started immediately after i.v. injection of 185 MBq of [^18F]Co. No. 1 or [^18F]T807 via the vena saphena of the right leg. Results of the 120-min baseline scan of [^18F]Co. No. 1 and [^18F]T807 are shown in FIGS. 7a and 7b, respectively. […] TACs of the baseline scan of [^18F]T807 in the brain show a slower initial brain uptake (SUV value of ˜1.3, time to peak uptake: 15 min) and wash-out (FIG. 8). […]

[7] = MicroPET imaging, rhesus monkey (experiment 1); type: in vivo, rhesus monkey (macaca mulatta); conditions: baseline scan
Experimental: A dynamic 120-min microPET scan with [^18F]Co. No. 1 or [^18F]T807 was performed on a Focus™ 220 microPET scanner (Concorde Microsystems, Knoxville, Tenn., USA) on, respectively, a female rhesus monkey (9 year-old macaca mulatta, 5.3 kg) and a male rhesus monkey (6 year-old macaca mulatta, 7.6 kg), that was sedated with ketamine (Ketalar®) and xylazine (Rompun®) via intramuscular (IM) injection. During scanning the monkey received repeatedly an additional dose of ketamine/xylazine via IV injection. The O2 saturation in the blood, the breathing frequency and heartrate were monitored during the entire experiment. The head of the animal was placed central, in the field of view, of the microPET scanner. Scans were acquired in list mode and acquisition data were Fourier rebinned in 24 time frames (4×15 s, 4×60 s, 5×180 s, 8×300 s, 3×600 s). Data were reconstructed using a 3D maximum a posteriori (3D-MAP) iterative reconstruction. TACs of the whole brain, corpus callosum, cerebellum and entorhinal cortex were generated using VOIs with PMOD software. Radioactivity concentration in the brain is expressed as SUV as a function of time after tracer injection (FIGS. 5a and 5b). Scans were started immediately after IV injection of 185 MBq of [^18F]Co. No. 1 of [^18F]T807 via the vena saphena of the right leg. […]

Row | SMILES | Selectivity (ratio) [1] | Ki [2] [nM] | IC50 [2] [nM] | Ki [3] [nM] | binding to extracted human amyloid-beta aggregates [3] | inhibition of [18F]Co. No. 1 binding to AD brain slices [4] [%] | initial brain uptake, SUV value in the brain [5] | time to peak uptake ([6]; brain) [min] | initial brain uptake, SUV value ([6]; i.v. 185 MBq, male monkey) | wash-out from brain [7] | initial brain uptake, SUV value ([7]; brain, IV 185 MBq)
1 | Cc1cnccc1Nc1ccc2nc(F)ccc2n1 [Co. No. 2] | >325 | 13.5 ± 2.2 | 31.6 | > 4400 | no measurable binding |  |  |  |  |  | 
2 | Fc1ccc(-c2ccc3c(c2)[nH]c2ccncc23)cn1 [[^18F]T807, 7-(6-fluoropyridin-3-yl)-5H-pyrido[4,3-b]indole] |  |  |  |  |  |  | ~1.6 | 15 | ~1.3 | slower wash-out | ~1.3

Results, then the molecule that gave them:

Row | Selectivity (ratio) [1] | Ki [2] [nM] | IC50 [2] [nM] | Ki [3] [nM] | binding to extracted human amyloid-beta aggregates [3] | inhibition of [18F]Co. No. 1 binding to AD brain slices [4] [%] | initial brain uptake, SUV value in the brain [5] | time to peak uptake ([6]; brain) [min] | initial brain uptake, SUV value ([6]; i.v. 185 MBq, male monkey) | wash-out from brain [7] | initial brain uptake, SUV value ([7]; brain, IV 185 MBq) | SMILES
3 | >540 | 7.9 ± 2.5 | 20 | > 4400 | no measurable binding | 99 |  |  |  |  |  | Cc1cc(Nc2ccc3nc(F)ccc3n2)ccn1 [Co. No. 1]
4 | >380 | 11.3 ± 2.8 | 25.1 | > 4400 | no measurable binding |  |  |  |  |  |  | Fc1ccc2nc(Nc3ccncc3)ccc2n1 [Co. No. 3]
5 |  |  |  |  |  | 98 |  |  |  |  |  | FCCC1CCN(c2ccn3c(n2)nc2ccccc23)CC1 [T808, 2-[4-(2-fluoroethyl)-1-piperidinyl]-pyrimido[1,2-a]benzimidazole, reference compound]
